From paper PMC6002837 (Bioorganic & medicinal chemistry letters, 2015)

Molecular target: T1, Rtt109–Vps75 (Saccharomyces cerevisiae, UniProt Q07794)
T1 sequence (Q07794 1-436): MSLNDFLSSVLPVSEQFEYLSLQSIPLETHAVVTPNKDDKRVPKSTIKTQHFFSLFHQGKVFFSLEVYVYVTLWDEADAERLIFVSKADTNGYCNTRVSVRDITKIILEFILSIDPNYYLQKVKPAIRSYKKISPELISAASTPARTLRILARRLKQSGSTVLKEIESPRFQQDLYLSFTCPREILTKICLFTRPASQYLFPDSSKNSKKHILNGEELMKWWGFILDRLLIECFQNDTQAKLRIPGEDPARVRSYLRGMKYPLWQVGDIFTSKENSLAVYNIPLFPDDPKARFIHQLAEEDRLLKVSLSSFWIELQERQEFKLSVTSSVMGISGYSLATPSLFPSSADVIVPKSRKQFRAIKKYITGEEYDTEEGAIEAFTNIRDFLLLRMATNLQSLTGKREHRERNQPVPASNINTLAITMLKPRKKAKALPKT
T1 sequence (P53853 1-264 partner): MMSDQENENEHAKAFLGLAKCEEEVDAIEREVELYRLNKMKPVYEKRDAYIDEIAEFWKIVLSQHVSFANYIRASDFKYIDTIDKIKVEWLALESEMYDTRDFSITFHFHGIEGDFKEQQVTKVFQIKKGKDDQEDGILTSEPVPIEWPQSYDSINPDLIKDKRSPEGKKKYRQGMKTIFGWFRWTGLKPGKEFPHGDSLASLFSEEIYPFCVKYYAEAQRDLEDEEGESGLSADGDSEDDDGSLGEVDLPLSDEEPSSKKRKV
Assay: in vitro [3H]-acetyl-CoA HAT assay, Rtt109–Vps75
Type: biochemical, yeast
Details: radiolabeled HAT assay; p = 0.61, n = 3 for 1a

Structure (SMILES): CCN(CC)c1ccc2c(C)c(-c3ccc(N4C(=O)C=CC4=O)cc3)c(=O)oc2c1 [CPM, N-[4-(7-diethylamino-4-methylcoumarin-3-yl)phenyl]maleimide]
- difference in IC50 values in presence or absence of DTT and BSA: significant decrease in IC50
